Patent US20110065582A1, “ENVIRONMENTALLY FRIENDLY SLOW-RELEASE PESTICIDE FORMULATIONS” (Consejo Superior De Investigaciones Cientificas, priority 2008, published 2011)

Columns and labels:
[1] = Adsorption of sulfentrazone in PC vesicle-montmorillonite suspension as a function of buffer pH; assay type: physicochemical; details: 5 g/L montmorillonite, 6 mM PC, 2.6 mM SFZ
Experimental: The formulations of PC with different herbicides were prepared by dissolving various quantities of the herbicide in question in a solution of 6 mM PC through sonication, and subsequent adding of montmorillonite. The herbicides employed were alachlor (hydrophobic in nature), atrazine (of basic nature) and sulfentrazone (of acid nature). […] The added amounts of the herbicides were 1.5-14 mM for alachlor, 1.8-2.4 mM for atrazine and 1.3-5.7 mM for sulfentrazone. The clay concentration was 1.6, 5 or 10 g/L. Following agitation during 24 h the suspensions were centrifuged at 20000 g during 10 min, the remaining herbicide in the supernatants was analysed, and the precipitates were lyophilised giving rise to the formulations. The herbicides were analysed by HPLC (Shimadzu Model 10A) fitted with a PDA detector. The reverse phase column was a Kromasil 100 C18 of 15 cm. The flow speed was 1.0 mL min−1. […]
The final concentrations of the formulations and the percentage in weight of the herbicides in the formulation are shown in Table 2. […] The active ingredient content was determined by means of sonication of 5 mg of each formulation in 20 ml of methanol. The suspensions were centrifuged and the herbicide in the supernatants was analysed. […]

[2] = Speciation of SFZ in solution; assay type: physicochemical
Excerpt: A primordial factor in the encapsulation of acidic molecules is the pH of the solution. […] However, small anionic species can also permeabilise the bilayers of PC. In fact, SFZ adsorption at pH 7.0 was 4 times higher than the amount of neutral species in solution.

[3] = 96 h of irradiation; cited from earlier work

Compound | adsorption of SFZ ([1]; buffer of pH 5.0) | adsorption of SFZ ([1]; buffer of pH 7.0 Trizma-HCl 1 M) | speciation in solution: anions ([2]; pH 5.0) | speciation in solution: neutral molecules ([2]; pH 5.0) | speciation in solution: anionic species ([2]; pH 7.0) | speciation in solution: neutrals ([2]; pH 7.0) | activity retained following irradiation [3]
Cc1nn(-c2cc(NS(C)(=O)=O)c(Cl)cc2Cl)c(=O)n1C(F)F [SFZ, sulfentrazone] | 69.5% | 11.8% | 2.7% | 97.3% | 73.4% | 26.6% | 
CCCN(CCC)c1c([N+](=O)[O-])cc(C(F)(F)F)cc1[N+](=O)[O-] [free trifluralin, trifluralin] |  |  |  |  |  |  | 30%
